Reference: EP0319316A2, “Griseolic acid monoesters, their preparation and use” (SANKYO COMPANY LIMITED, priority 1987, dated 1989)

Key:
[1] = system: water load-induced elevation of intraocular pressure; test: Effect on water load-induced elevation of intraocular pressure, water load test (Experiment 2); type: in vivo, male New Zealand white rabbits; settings: 2.0% sample solution
Experimental: In the following Experiments 1 to 6, the test animals used were male New Zealand white rabbits, each weighing about 2.5 kg, raised in a room where the room temperature, relative humidity and lighting time were controlled to be 23° C, 60% and from 07:00 to 19:00, respectively. The animals were chosen from those where no abnormalities could be detected in their eyes by observation with the naked eye. They were given water freely but feed was restricted. The compound under test was dissolved in 100 mM of a sodium phosphate buffer solution (pH 7.2) containing a small amount of a 0.1 N aqueous solution of sodium hydroxide. In the case of timolol maleate, a 0.5% w/v eye lotion (Timoptol 0.5%, Santen Pharm. Co.) was used as such. Each rabbit was anesthetized with urethane (1.0 g/kg, i.v.), and the IOP values of both eyes were measured. Immediately thereafter, 50 µℓ of the sample solution was applied to one eye (test eye). To the other eye (control eye), 50 µℓ of the vehicle alone was applied. Ninety minutes after this application, the values of IOP were measured and then the water load test was performed as follows. Sixty ml/kg of tap water was given compulsorily per os to the anesthetized rabbit, and then the values of IOP for both eyes were measured with the passage of time. In this Experiment, the test compound was the compound of Example 19(b), i.e. 9'-(4-acetoxybenzyl) griseolate.

[2] = system: Normal intraocular pressure; test: Normal intraocular pressure lowering effect (Experiment 3); type: in vivo, male New Zealand white rabbits; settings: 2.0% sample solution, p < 0.05
Experimental: In the following Experiments 1 to 6, the test animals used were male New Zealand white rabbits, each weighing about 2.5 kg, raised in a room where the room temperature, relative humidity and lighting time were controlled to be 23° C, 60% and from 07:00 to 19:00, respectively. The animals were chosen from those where no abnormalities could be detected in their eyes by observation with the naked eye. They were given water freely but feed was restricted. The compound under test was dissolved in 100 mM of a sodium phosphate buffer solution (pH 7.2) containing a small amount of a 0.1 N aqueous solution of sodium hydroxide. In the case of timolol maleate, a 0.5% w/v eye lotion (Timoptol 0.5%, Santen Pharm. Co.) was used as such. The corneal surface was anesthetized by the application of oxybuprocain hydrochloride (Benoxil 0.4% solution, Santen Pharm. Co.), and the IOP was measured by means of an Alcon Applanation Pneumatograph (Japan Alcon) in rabbits. The measurements were carried out 2 or 3 times for each eye, and the mean value was calculated and is regarded as the value of IOP. After determination of the IOP, 25 µℓ of a sample solution was applied to one eye (test eye) three times every two minutes, and the same volume of the vehicle alone was applied to the other eye (control eye). The values of IOP of both eyes were measured with the passage of time. In this Experiment, the test compound was the compound of Example 19(b).

IOP = IOP lowering effect, area between IOP-time curves (Experiment 6); type: in vivo, male New Zealand white rabbits; settings: Concentration 2.0 %; 25 µℓ three times every 2 minutes; ratio of areas between IOP lines
Experimental: In the following Experiments 1 to 6, the test animals used were male New Zealand white rabbits, each weighing about 2.5 kg, raised in a room where the room temperature, relative humidity and lighting time were controlled to be 23° C, 60% and from 07:00 to 19:00, respectively. The animals were chosen from those where no abnormalities could be detected in their eyes by observation with the naked eye. They were given water freely but feed was restricted.
The compound under test was dissolved in 100 mM of a sodium phosphate buffer solution (pH 7.2) containing a small amount of a 0.1 N aqueous solution of sodium hydroxide. In the case of timolol maleate, a 0.5% w/v eye lotion (Timoptol 0.5%, Santen Pharm. Co.) was used as such.
The cornea of the rabbit was anesthetized by the topical application of one or two drops of 0.4% oxybuprocaine hydrochloride. The IOP was measured two or three times for each eye and the mean value was calculated and is reported as the IOP value. After the IOP of the rabbit eye had been measured, 25 µℓ of the sample solution was applied to center of the cornea of one eye three times every 2 minutes. The other eye was treated with the vehicle alone in a similar way. The IOP of both eyes was then measured.
IOP values obtained from both eyes were plotted against times after application and the area enclosed by the two IOP lines (with and without the active compound) was calculated. The IOP lowering effect of each sample was expressed as a ratio of the area described above to that of 0.5^0/o timolol.

Male F344 rats = test: Four-day toxicity in the rat (Experiment 8); type: in vivo
Experimental: Animals: Male F344 rats were used, each group consisting of 5 animals.
Drug preparation and administration: the compound of Example 19(b) was dissolved in distilled water and administered subcutaneously to the rats in a volume of 0.4 ml per 100 g of body weight at 09:00 for 4 days. Twenty-four hours after the final dose the rats were anesthetized with diethyl ether and their blood and organs were collected, weighed and used for pathological examination.

eyes = test: Eye irritation by the Draize method (Experiment 11); type: in vivo, male New Zealand white rabbit; settings: 2% by weight solution, 0.05 ml three times a day for seven days, right eye
Experimental: The irritation to the eyes caused by solutions of the compound of Example 19(b) was determined by the Draize method [J.H. Draize et af., J. Pharmacol. Exp. Ther., 82,377 (1944)] and evaluated by the method of Kay and Calandra [J.H. Kay and J.C. Calandra, J. Soc. Cosmet. Chem., 13, 281 (1962)].
The test solution employed was a simple solution of 2% by weight of the test compound in 100 mM of a sodium phosphate buffer (pH 7.2) for injections and adjusted to a pH value of from 7 to 8, as required.
A male New Zealand white rabbit of body weight about 2.5 kg was placed in a pillory to fix its head. 0.05 ml of the test solution was instilled into its right eye three times a day (at 09:00, 13:00 and 17:00) for seven days. The symptoms experienced by the anterior portion of the right eye were observed every day at 18:00 over a period of seven days, and the irritation observed was scored.

Balb/3T3 cells = settings: 10 min, 500 µM
Experimental: Balb/3T3 cells were incubated in Dulbecco's modified Eagle medium (glucose-rich) containing 100/o v/v bovine fetal serum. […] The sample was then dissolved in a buffer solution prepared by the further addition of 4 mM of calcium chloride to the buffer solution mentioned above. If the sample was difficult to dissolve in water, it was dissolved first in dimethyl sulphoxide (DMSO) and then the resulting solution was diluted with the buffer (the final concentration of DMSO was determined to be 0.1%). The cell suspension was preincubated at 30° C for 5 minutes, and 100 µℓ of this suspension were added to 100 µℓ of the sample solution to initiate enzymatic reaction. After incubation at 30° C for 10 minutes, 20 µℓ of 1 N aqueous hydrochloric acid was added to stop the reaction. The reaction mixture was then centrifuged at 3000 rpm for 3 minutes to obtain 100 µℓ of the supernatant. Cyclic 3',5'-adenosine monophosphate (cAMP) contained in the supernatant was quantitatively analyzed by radioimmunoassay using a Yamasa cAMP radioimmunoassay kit YSI-7701. The CAMP accumulating effect is reported as the ratio between the value measured using a test compound and that measured in the control.

[3] = parameters: species or system Male albino rabbits; settings: rabbit, in vivo

CC(=O)Oc1ccc(COC(=O)C23C=C(C(O)C(=O)O)OC2C(O)C(n2cnc4c(N)ncnc42)O3)cc1 (centres unmarked) [Example 19(b), 9'-(4-Acetoxybenzyl) griseolate]
IOP of test eye ([1]; 50 µℓ, 90 minutes after application, before water loading, control eye 17.1 ± 1.1): 16.8 ± 1.0 mmHg | IOP of test eye ([1]; 0.5 hours after water loading (60 ml/kg per os), control eye 28.7 ± 1.8, p < 0.05): 25.6 ± 2.2 mmHg | IOP of test eye ([1]; 1.0 hours after water loading, control eye 26.3 ± 2.4, p < 0.05): 22.6 ± 2.3 mmHg | IOP of test eye ([1]; 1.5 hours after water loading, control eye 20.3 ± 1.6, p < 0.05): 17.5 ± 1.2 mmHg | IOP of test eye ([1]; 2.0 hours after water loading, control eye 17.4 ± 1.5): 17.1 ± 1.1 mmHg | IOP of test eye ([1]; 2.5 hours after water loading, control eye 17.4 ± 1.9, p < 0.05): 15.6 ± 1.5 mmHg | IOP of test eye ([2]; 25 µℓ three times every two minutes, one hour after application, control eye 20.7 ± 1.4): 19.5 ± 1.4 mmHg | IOP of test eye ([2]; 2 hours after application, control eye 21.4): 19.3 ± 1.3 mmHg | IOP of test eye ([2]; 5 hours after application, control eye 22.8 ± 0.5): 20.6 ± 0.7 mmHg | IOP Lowering Effect (Ratio to 0.5% timolol) (IOP): 2.35 | death rate (Male F344 rats; dose 6.25 mg/kg subcutaneously for 4 days): 0/5 | death rate (Male F344 rats; dose 12.5 mg/kg subcutaneously for 4 days): 0/5 | death rate (Male F344 rats; dose 25 mg/kg subcutaneously for 4 days): 0/5 | death rate (Male F344 rats; dose 50 mg/kg subcutaneously for 4 days): 5/5 | irritation to the eyes (eyes): No significant stimulus was observed | cAMP accumulating effect (Balb/3T3 cells): 16 | IP [3]: 5.1 ± 0.5 mg/dL
